The target of one experiment is CDK2/Cyclin A1 (Homo sapiens, UniProt P24941). The experiment is classed as protein-complex assay.
For experiment [1], the target named is Receptor-type tyrosine-protein kinase FLT3 (Homo sapiens, UniProt P36888, ITD).
The test system of another experiment is MV4-11. Nature of the experiment: cells. As to conditions: Homo sapiens, MV4-11, 72 h.
A further experiment relates to K562. Nature of the experiment: cells. As to conditions: Homo sapiens, K562, 72 h.

Receptor-type tyrosine-protein kinase FLT3, sequence (P36888 whole entry, looked up, change not shown): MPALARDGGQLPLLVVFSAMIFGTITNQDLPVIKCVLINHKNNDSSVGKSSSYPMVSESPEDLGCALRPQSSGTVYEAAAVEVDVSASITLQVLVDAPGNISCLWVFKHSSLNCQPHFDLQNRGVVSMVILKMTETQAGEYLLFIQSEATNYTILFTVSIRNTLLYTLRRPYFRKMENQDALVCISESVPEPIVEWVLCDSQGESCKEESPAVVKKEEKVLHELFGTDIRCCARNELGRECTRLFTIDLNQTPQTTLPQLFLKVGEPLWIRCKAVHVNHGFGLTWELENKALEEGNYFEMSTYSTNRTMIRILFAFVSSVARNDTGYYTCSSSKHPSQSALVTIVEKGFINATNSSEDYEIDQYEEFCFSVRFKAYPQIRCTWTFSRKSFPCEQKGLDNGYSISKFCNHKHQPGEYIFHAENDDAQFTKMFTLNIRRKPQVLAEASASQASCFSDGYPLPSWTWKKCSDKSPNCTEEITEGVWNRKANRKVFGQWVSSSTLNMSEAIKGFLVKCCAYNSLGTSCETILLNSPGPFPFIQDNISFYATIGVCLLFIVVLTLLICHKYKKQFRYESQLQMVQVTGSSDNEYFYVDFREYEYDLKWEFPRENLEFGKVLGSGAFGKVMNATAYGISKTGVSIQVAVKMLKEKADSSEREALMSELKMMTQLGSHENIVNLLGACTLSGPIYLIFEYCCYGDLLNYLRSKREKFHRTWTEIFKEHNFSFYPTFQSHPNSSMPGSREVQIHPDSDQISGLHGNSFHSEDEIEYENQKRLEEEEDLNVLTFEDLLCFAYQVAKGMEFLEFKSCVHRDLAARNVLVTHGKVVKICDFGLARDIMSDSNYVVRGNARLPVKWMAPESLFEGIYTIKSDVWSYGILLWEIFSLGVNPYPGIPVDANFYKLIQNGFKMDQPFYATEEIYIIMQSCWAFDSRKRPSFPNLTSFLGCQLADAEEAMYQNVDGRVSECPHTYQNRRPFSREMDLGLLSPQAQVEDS
Description for CDK2/Cyclin A1: Inhibition of CDK2/Cyclin A1 (unknown origin) at 1 uM using histone H1 as substrate preincubated for 20 mins followed by 33P-ATP addition and measured after 2 hrs by filter binding method
Description for K562: Antiproliferative activity against human K562 cells assessed as cell death measured after 72 hrs by resazurin dye based assay
Description for MV4-11: Antiproliferative activity against human MV4-11 cells assessed as cell death measured after 72 hrs by resazurin dye based assay

As to `Cn1cc(-c2nc3ccc4[nH]ncc4c3c3c2CCCC3)c(C2CC2)n1`, the IC50 on CDK2/Cyclin A1 amounted to 1130 nM; in experiment [1] it was 3660 nM; in the experiment with MV4-11, 1300 nM; with K562, 33800 nM.

Turning to `[O-][S+]1CCc2c(c(-c3c[nH]nc3C(F)(F)F)nc3ccc4[nH]ncc4c23)C1` (stereo unspecified), the IC50 against CDK2/Cyclin A1 was found to be 40 nM; in experiment [1], 17 nM; in the experiment on MV4-11 it was 24 nM; with K562 it was 8600 nM.

Consider `Nc1ccc(-c2nc3ccc4[nH]ncc4c3c3c2CCCC3)cc1C(F)(F)F`, for which the 50% inhibitory concentration (IC50) against CDK2/Cyclin A1 was 237 nM; in experiment [1], 3120 nM; with MV4-11 it was 2940 nM; in the experiment on K562, 21900 nM.

Regarding `FC(F)(F)c1n[nH]cc1-c1nc2ccc3[nH]ncc3c2c2c1CC(C(F)(F)F)CC2` (stereo unspecified), the IC50 against CDK2/Cyclin A1 came to 139 nM; in experiment [1] it was 126 nM; with MV4-11, 14 nM; with K562, 8100 nM.

As for `CC(C)c1nn(C)cc1-c1nc2ccc3[nH]ncc3c2c2c1CCCC2`, the IC50 is 1450 nM against CDK2/Cyclin A1, 3840 nM in experiment [1], 1400 nM with MV4-11 and 77500 nM in the experiment with K562.

As for `CC(C)c1n[nH]cc1-c1nc2ccc3[nH]ncc3c2c2c1CCCC2`, the 50% inhibitory concentration (IC50) against CDK2/Cyclin A1 was found to be 88 nM; in experiment [1] it was 212 nM; in the experiment with MV4-11, 610 nM; in the experiment on K562, 11100 nM.

In the case of `Fc1n[nH]c2ccc3nc(-c4c[nH]nc4C(F)(F)F)c4c(c3c12)CCCC4`, the IC50 came out at 272 nM against CDK2/Cyclin A1, 31 nM in experiment [1], 660 nM in the experiment on MV4-11 and 31200 nM in the experiment on K562.

`FC(F)(F)c1n[nH]cc1-c1nc2ccc3[nH]ncc3c2c2c1COCC2`: the IC50 against CDK2/Cyclin A1 turned out to be 190 nM; in experiment [1] it was 109 nM; in the experiment on MV4-11 it was 92 nM; in the experiment with K562, 9250 nM.

Regarding `FC(F)(F)c1n[nH]cc1-c1nc2ccc3[nH]nc(Br)c3c2c2c1CCCC2`, the IC50 worked out at 325 nM at CDK2/Cyclin A1, 3 nM in experiment [1], 544 nM in the experiment with MV4-11 and 28900 nM in the experiment on K562.

With `Cc1n[nH]c2ccc3nc(-c4c[nH]nc4C(F)(F)F)c4c(c3c12)CCC(N)C4` (stereo unspecified), the IC50 against CDK2/Cyclin A1 came to 640 nM; in experiment [1], 211 nM; in the experiment on MV4-11 it was 319 nM; with K562, 53800 nM.

Take `Cn1cc(-c2nc3ccc4[nH]ncc4c3c3c2CCCC3)c(C(F)(F)F)n1`: the IC50 came out at 556 nM at CDK2/Cyclin A1, 549 nM in experiment [1], 500 nM in the experiment on MV4-11 and 10400 nM in the experiment on K562.

As to `Cc1n[nH]cc1-c1nc2ccc3[nH]nc(C)c3c2c2c1CCCC2`, the IC50 against CDK2/Cyclin A1 is 717 nM; in experiment [1], 42 nM; in the experiment with MV4-11, 687 nM; with K562, 21100 nM.

Regarding `OC1CCc2c(c(-c3c[nH]nc3C(F)(F)F)nc3ccc4[nH]ncc4c23)C1` (stereo unspecified), the IC50 came out at 20 nM at CDK2/Cyclin A1, 16 nM in experiment [1], 32 nM in the experiment on MV4-11 and 22500 nM in the experiment on K562.

Turning to `Fc1ccc(-c2cc(-c3c[nH]nc3C(F)(F)F)nc3ccc4[nH]ncc4c23)cc1Cl`, the IC50 against CDK2/Cyclin A1 is 1270 nM; in experiment [1], greater than 20000 nM; with MV4-11, 25700 nM; in the experiment with K562, 65900 nM.

In the case of `FC(F)(F)c1n[nH]cc1-c1nc2ccc3[nH]nc(I)c3c2c2c1CCCC2`, the half-inhibitory concentration (IC50) was found to be 63 nM at CDK2/Cyclin A1, 21 nM in experiment [1], 1260 nM with MV4-11 and 40100 nM in the experiment on K562.

Take `N#Cc1n[nH]c2ccc3nc(-c4c[nH]nc4C(F)(F)F)c4c(c3c12)CCCC4`: the IC50 at CDK2/Cyclin A1 was greater than 20000 nM; in experiment [1] it was greater than 20000 nM; in the experiment with MV4-11, greater than 100000 nM; in the experiment on K562 it was greater than 100000 nM.

As for `c1n[nH]cc1-c1nc2ccc3[nH]ncc3c2c2c1CCCC2`, the IC50 against CDK2/Cyclin A1 came out at 72 nM; in experiment [1], 90 nM; in the experiment on MV4-11 it was 330 nM; with K562, 3930 nM.

Regarding `CCc1cnn2c(NCc3ccc[n+]([O-])c3)cc(N3CCCC[C@H]3CCO)nc12` [DINACICLIB], the IC50 in experiment [1] is greater than 2000 nM; in the experiment with MV4-11, 7 nM; in the experiment with K562, 13 nM.

By IC50 is commonly meant the concentration needed to halve the response being measured. Higher therefore signals weaker potency.

The values above are taken from ChEMBL document CHEMBL4834472 (J Med Chem, 2021).
